Calls of active or inactive are those of the source.
Columns and labels:
Format in all cases: functional, organism-based
[1] = organism: Homo sapiens; assay: Agonistic activity against platelet aggregation; Effective agonist; conditions: filed as agonist
[2] = organism: Homo sapiens; assay: Biphasic response at low concentration; Active
[3] = organism: Homo sapiens; assay: Reversible aggregation effect at low concentration; Active

Measured: Activity

Nc1ncnc2c1ncn2[C@@H]1O[C@H](COP(=O)(O)OP(=O)(O)O)[C@@H](O)[C@H]1O
active: [1] Agonist | [2] | [3]

Reference: ChEMBL document CHEMBL1123916, “Facile synthesis of 2-[(3-aminopropyl)thio]adenosine 5'-diphosphate: a key intermediate for the synthesis of molecular probes of adenosine 5'-diphosphate function” (J Med Chem, 1987)
